From US5391571A, “Cholesterol ester hydrolase inhibitors” (priority 1993, dated 1995) come the findings set out here.

In test [1] the test system is cholesterol absorption. Description: in vivo cholesterol absorption study, serum radioactivity after oral [4-^14C] cholesterol. To be noted: Rattus norvegicus, 6 h, normal rats, serum radioactivity at six hours; for inhibition in vivo at 65 mg/kg / inhibition in vivo at 50 mg/kg / inhibition in vivo at 100 mg/kg: vs control, read-out: Decrease in [^14C] Cholesterol Absorption. How it is done:
The in vivo cholesterol absorption studies were conducted in normal rats by oral administration of the compound being tested in propylene glycol and olive oil followed by oral administration of [4-^14 C] cholesterol in propylene glycol and olive oil, otherwise following the procedure of Cayen et al., J. Lipid Res. 20 162 (1979). The serum radioactivity was measured at six hours after dosing. The results of this study are reported in the following Table, where available, as percent decrease compared to control and in terms of the effective dose (ED50) inhibiting fifty-percent of the absorption of the control animals.

The target of test [2] is T1, cholesterol esterase (EC 3.1.1.13) (Bos taurus, UniProt P30122).
T1 construct: purchased Sigma Chemical Company, St. Louis, Mo., USA C-1892; host or cells: bovine pancreas
Description: in vitro inhibition of cholesteryl ester formation by cholesterol esterase. In kind it is biochemical, bovine. To be noted: for IC50: 37° C., cholesterol and oleic acid, cholesterol esterase from bovine pancreas, read-out: IC50 (concentration that inhibits one-half of the ester formation). How it is done: The ability of the compounds of this invention to inhibit the formation of cholesteryl esters and thereby interfere with and prevent assimilation of cholesterol into the lymphatic system and ultimately the blood stream was established by incubating the compounds at 37° C. with a mixture of cholesterol and oleic acid in the presence of buffered cholesterol esterase [(EC 3.1.1.13) Sigma Chemical Company, St. Louis, Mo., USA, No. C-1892, from bovine pancreas] and measuring the amount of ester formed, according to the procedure of Field, J. of Lipid Research, 25 389 (1984).

T1 sequence (P30122 19-597): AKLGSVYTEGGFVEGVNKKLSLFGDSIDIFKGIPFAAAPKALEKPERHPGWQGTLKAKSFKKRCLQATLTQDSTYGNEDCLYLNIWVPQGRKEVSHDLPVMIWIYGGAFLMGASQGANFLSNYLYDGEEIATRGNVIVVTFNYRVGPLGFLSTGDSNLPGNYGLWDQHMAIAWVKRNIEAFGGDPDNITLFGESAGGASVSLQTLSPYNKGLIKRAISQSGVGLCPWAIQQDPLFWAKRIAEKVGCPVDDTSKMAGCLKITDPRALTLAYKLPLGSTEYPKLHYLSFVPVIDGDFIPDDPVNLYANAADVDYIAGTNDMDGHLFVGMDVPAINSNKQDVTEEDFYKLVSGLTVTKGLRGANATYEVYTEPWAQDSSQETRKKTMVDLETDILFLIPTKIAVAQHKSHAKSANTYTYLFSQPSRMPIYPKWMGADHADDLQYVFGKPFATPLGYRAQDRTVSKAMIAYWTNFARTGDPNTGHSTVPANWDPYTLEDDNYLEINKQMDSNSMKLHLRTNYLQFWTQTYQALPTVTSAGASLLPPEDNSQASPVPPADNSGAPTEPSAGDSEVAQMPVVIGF

`COc1ccc(Oc2ccc(OC(=O)N3CCC(C)CC3)cc2)cc1` [Example 30, 4-Methyl-1-piperidinecarboxylic acid 4-(4-methoxyphenoxy)phenyl ester]: the inhibition in vivo at 65 mg/kg in test [1] turned out to be 83%. Also, the IC50 in test [2] was determined as 1.2 µM. In the case of `CCCCCCCCCCCCOC(=O)c1cc(Oc2ccccc2)ccc1OC(=O)N1CCC(C)CC1` [Example 58, 4-Methyl-1-piperidinecarboxylic acid 2-(dodecycloxycarbonyl)-4-phenoxyphenyl ester], in test [1], the inhibition in vivo at 50 mg/kg is 37%. For the same compound, in test [2], the IC50 turned out to be 0.34 µM. Consider `O=C(NCC1CCCCC1)Oc1ccc(Oc2ccccc2)cc1` [Example 14, Cyclohexylmethylcarbamic acid 4phenoxyphenyl ester], for which, in test [2], the IC50 came to 9.3 µM. `CCCCC(CC)NC(=O)Oc1ccc(Oc2ccccc2)cc1` (stereo not drawn) [Example 17, (1-Ethylpentyl)carbamic acid 4-phenoxyphenyl ester]: the IC50 in test [2] came to 13.3 µM.

Regarding `CN1CCN(C(=O)Oc2ccc(Oc3ccccc3)cc2)CC1` [Example 9, 4-Methyl-1-piperazinecarboxylic acid 4-phenoxyphenyl ester], the inhibition in vivo at 100 mg/kg in test [1] came out at 40%. Besides, the IC50 in test [2] was over 100 µM. As to `COC(=O)c1cc(Oc2ccccc2)ccc1OC(=O)N1CCC(C)CC1` [Example 49, 4-Methyl-1-piperidinecarboxylic acid 2-(methoxycarbonyl)-4-phenoxyphenyl ester], in test [1], the inhibition in vivo at 50 mg/kg was 28%. In addition, in test [2], the IC50 worked out at 0.34 µM. With `O=C(O)C1CCN(C(=O)Oc2ccc(Oc3ccccc3)cc2)CC1` [Example 46, 1.4-Piperidinedicarboxylic acid 1-(1-phenoxyphenyl ester)], the inhibition in vivo at 100 mg/kg in test [1] turned out to be 55%. In addition, the IC50 in test [2] was determined as 44 µM.

In the case of `O=C(Oc1ccc(Oc2ccccc2)cc1)N1CCOCC1` [Example 7, 4-Morpholinecarboxylic acid 4-phenoxyphenol ester], the IC50 in test [2] is 85 µM. In the case of `CC1CCCCN1C(=O)Oc1ccc(Oc2ccccc2)cc1` (stereo not drawn) [Example 63, 2-Methyl-1-piperidinecarboxylic acid 4-phenoxyphenyl ester], the inhibition in vivo at 50 mg/kg in test [1] was 68%. In addition, the IC50 in test [2] was over 100 µM. In turn, `CCCCNC(=O)Oc1c(C)cc(Oc2ccc(C)cc2)cc1C` [Example 22, Butylcarbamic acid 2,6-dimethyl-4-(4-methylphenoxy)phenyl ester] returned an inhibition at 30 µM in test [2] (at 30 μM) of 20%. With `CCCCCCCCCCCCOC(=O)C1CCN(C(=O)Oc2ccc(Oc3ccccc3)cc2)CC1` [Example 53, 1,4-Piperidinedicarboxylic acid 4-dodecyl 1-(4-phenoxyphenyl) diester], the inhibition in vivo at 100 mg/kg in test [1] is 44%. For the same compound, the IC50 in test [2] was over 100 µM. As to `CC(C)CCCC(C)NC(=O)Oc1ccc(Oc2ccccc2)cc1F` (stereo not drawn) [Example 37, (1,5-Dimethylhexyl)carbamic acid 2-fluoro-4-phenoxyphenyl ester], the IC50 in test [2] amounted to 1.4 µM. For `CCCCNC(=O)Oc1ccc(Oc2ccccc2)cc1F` [Example 28, Butylcarbamic acid 2-fluoro-4-phenoxyphenyl ester], the IC50 in test [2] was 1.9 µM. Still for that read-out and setting: for `CCCCNC(=O)Oc1ccc(Oc2ccccc2)cc1C(=O)OC` [Example 50] the value was 5.1 µM; for `COc1ccc(Oc2ccc(OC(=O)NC(C)CCCC(C)C)cc2)cc1` (stereo not drawn) [Example 31, (1,5-Dimethylhexyl)carbamic acid 4-(4-methoxyphenoxy)phenyl ester], 26 µM. In the case of `CCCCCC(C)NC(=O)Oc1ccc(Oc2ccccc2)cc1` (stereo not drawn) [Example 26], the IC50 in test [2] came out at 2.9 µM.

Consider `CCCCNC(=O)Oc1ccc(Oc2ccc(Cl)cc2)cc1` [Example 21, Butylcarbamic acid 4-(4-chlorophenoxy)phenyl ester], for which, in test [2], the IC50 came out at 6.1 µM. Regarding `CC(C)(C)CC(C)(C)NC(=O)Oc1ccc(Oc2ccccc2)cc1` [Example 16, (1,1,3,3-Tetramethylbutyl)carbamic acid 4-phenoxyphenyl ester], in test [2], the IC50 was over 100 µM. As for `CC(C)CCCC(C)NC(=O)Oc1ccc(Oc2ccc(Cl)cc2)cc1` (stereo not drawn) [Example 27, (1,5-Dimethylhexyl)carbamic acid 4-(4-chlorophenoxy)phenyl ester], the IC50 in test [2] stood at 7.1 µM. Regarding `O=C(Oc1ccc(Oc2ccccc2)cc1)N1CCC(c2ccccc2)CC1` [Example 5, 4-Phenyl1-piperidinecarboxylic acid 4-phenoxyphenl ester], the IC50 in test [2] was found to be 33 µM. On to `Cc1ccc(Oc2ccc(OC(=O)NC(C)CCCC(C)C)cc2)cc1` (stereo not drawn) [Example 24, (1,5-Dimethylhexyl)carbamic acid 4-(4-methylphenoxy)phenyl ester], for which the IC50 in test [2] is 5.6 µM. Same read-out and setting: the figure for `CCCCCCNC(=O)Oc1ccc(Oc2ccccc2)cc1` [Example 36, Hexylcarbamic acid 4-phenoxyphenyl ester] is 1.7 µM; for `CCCCNC(=O)Oc1ccc(Oc2ccc(OC)cc2)cc1` [Example 29, Butylcarbamic acid 4-(4-methoxyphenoxy)phenyl ester] it is 13 µM.

As to `O=C(NC1CCCCC1)Oc1ccc(Oc2ccccc2)cc1` [Example 13, Cyclohexylcarbamic acid 4-phenoxyphenyl ester], the IC50 in test [2] amounted to 6.7 µM.

On to `O=C(Oc1ccc(Oc2ccccc2)cc1)N1CCC(CI)CC1` [Example 59, 4-(Iodomethyl)-1-piperidinecarboxylic acid 4-phenoxyphenyl ester], for which the IC50 in test [2] amounted to 0.27 µM. Consider `CCCCCCCCNC(=O)Oc1ccc(Oc2ccccc2)cc1` [Example 11, Octylcarbamic acid 4phenoxyphenyl ester], for which, in test [2], the IC50 was found to be 20 µM. With `CC1CCN(C(=O)Oc2ccc(Oc3ccccc3)cc2)CC1` [Example 8, 4-Methyl-1-piperidinecarboxylic acid 4-phenoxyphenyl ester], the inhibition in vivo at 65 mg/kg in test [1] was found to be 90%. Also, the 50% effective dose (ED50) in test [1] (read-out: ED50 (effective dose inhibiting fifty percent of the cholesterol absorption of the control animals)) amounted to 10 mg/kg.

With `O=C(Oc1ccc(Oc2ccccc2)cc1)N1CCC(CO)CC1` [Example 56, 4-(Hydroxymethyl)-1-piperidinecarboxylic acid 4-phenoxyphenyl ester], in test [2], the IC50 is 2.1 µM. Turning to `O=C(Oc1ccc(Oc2ccccc2)cc1)N1CCN(c2ccccc2)CC1` [Example 6, 4-Phenyl-1-piperazinecarboxylic acid 4-phenoxyphenyl ester], in test [2], the IC50 was found to be 55 µM. As to `CC(C)CC(C)NC(=O)Oc1ccc(Oc2ccccc2)cc1` (stereo not drawn) [Example 18, (1,3-Dimethylbutyl)carbamic acid 4phenoxyphenyl ester], in test [2], the IC50 turned out to be 16.5 µM. With `CCCCNC(=O)Oc1ccc(Oc2ccc(C(C)(C)C)cc2)cc1` [Example 32, Butylcarbamic acid 4-[4-(1,1-dimethylethyl)phenoxy]phenyl ester], the IC50 in test [2] was over 100 µM. Consider `O=C(Oc1ccc(Oc2ccccc2)cc1)N1CCCCCC1` [Example 40, Hexahydro-1H-azepine-1-carboxylic acid 4-phenoxyphenyl ester], for which the IC50 in test [2] turned out to be 19 µM.

Turning to `CCCCNC(=O)Oc1ccc(Oc2ccc(C)cc2)cc1` [Example 19, Butylcarbamic acid 4-(4-methylphenoxy)phenyl ester], the IC50 in test [2] stood at 5.4 µM. With `CCCCCCN(CCCCCC)CC1CCN(C(=O)Oc2ccc(Oc3ccccc3)cc2)CC1` [Example 62, 4-(Dihexylaminomethyl)-1-piperidinecarboxylic acid 4-phenoxyphenyl ester], the IC50 in test [2] was determined as 15 µM.

The term inhibition denotes the change of the read-out against control, counted positive when it falls. Read a low inhibition as a weak effect. Usually ED50 stands for the midpoint of the dose-response relation.
